Experimental data as given in PMC9692725, “Glutathione S-Transferase May Contribute to the Detoxification of (S)-(−)-Palasonin in Plutella xylostella (L.) via Direct Metabolism” (Insects, 2022).

Key:
GSTd1 [1] = biological target: T1, GSTd1 (Plutella xylostella, UniProt A0A8S4F7H5); assay: CDNB-GSH conjugation, absorbance at […] nm; assay type: biochemical; details: 1 mM GSH, 100 mM phosphate buffer, CDNB 0.05-1.6 mM
T1 construct: gene PLXY2_LOCUS7699; recombinant, pET-30a(+), E. coli BL21(DE3), Ni-NTA purified, about 25 kDa expected
T1 sequence (A0A8S4F7H5 1-243 limits assumed): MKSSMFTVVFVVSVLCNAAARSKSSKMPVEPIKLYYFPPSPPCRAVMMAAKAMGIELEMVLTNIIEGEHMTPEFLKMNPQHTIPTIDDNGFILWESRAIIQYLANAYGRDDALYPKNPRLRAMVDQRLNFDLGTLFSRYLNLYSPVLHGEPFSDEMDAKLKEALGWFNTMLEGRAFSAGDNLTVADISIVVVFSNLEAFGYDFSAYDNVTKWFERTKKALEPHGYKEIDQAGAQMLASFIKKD

GSTs2 [2] = biological target: T2, GSTs2 (Plutella xylostella, UniProt Q6F436); assay: CDNB-GSH conjugation, absorbance at […] nm; assay type: biochemical; details: 1 mM GSH, 100 mM phosphate buffer, CDNB 0.05-1.6 mM
T2 construct: recombinant, pET-30a(+), E. coli BL21(DE3), Ni-NTA purified, about 25 kDa expected

GSTs1 [3] = biological target: T3, GSTs1 (Plutella xylostella, UniProt Q6F443); assay: CDNB-GSH conjugation, absorbance at […] nm; assay type: biochemical; details: 1 mM GSH, 100 mM phosphate buffer, CDNB 0.05-1.6 mM
T3 construct: recombinant, pET-30a(+), E. coli BL21(DE3), Ni-NTA purified, about 25 kDa expected
T3 sequence (Q6F443 1-204): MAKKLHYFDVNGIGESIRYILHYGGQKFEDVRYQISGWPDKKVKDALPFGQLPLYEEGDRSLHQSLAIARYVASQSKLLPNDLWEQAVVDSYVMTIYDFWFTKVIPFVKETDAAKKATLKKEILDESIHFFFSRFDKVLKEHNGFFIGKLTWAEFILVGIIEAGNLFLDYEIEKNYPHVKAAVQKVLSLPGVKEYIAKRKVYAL

GSTd5 = tested on: T4, GSTd5; assay: CDNB-GSH conjugation, absorbance at […] nm; assay type: biochemical, Plutella xylostella; details: 1 mM GSH, 100 mM phosphate buffer, CDNB 0.05-1.6 mM
T4 construct: recombinant, pET-30a(+), E. coli BL21(DE3), Ni-NTA purified, about 25 kDa expected

GSTd3 = biological target: T5, GSTd3 (Plutella xylostella, UniProt D7URW9); assay: CDNB-GSH conjugation, absorbance at […] nm; assay type: biochemical; details: 1 mM GSH, 100 mM phosphate buffer, CDNB 0.05-1.6 mM
T5 construct: gene PxGSTd; recombinant, pET-30a(+), E. coli BL21(DE3), Ni-NTA purified, about 25 kDa expected
T5 sequence (D7URW9 1-215): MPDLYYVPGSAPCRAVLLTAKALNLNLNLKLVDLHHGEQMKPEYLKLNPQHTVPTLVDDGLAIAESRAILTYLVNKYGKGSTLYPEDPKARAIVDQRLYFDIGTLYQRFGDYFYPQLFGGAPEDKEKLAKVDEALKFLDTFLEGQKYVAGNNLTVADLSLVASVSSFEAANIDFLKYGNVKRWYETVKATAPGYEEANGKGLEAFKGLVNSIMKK

GSTe5 = biological target: T6, GSTe5 (Plutella xylostella, UniProt X5CJR9); assay: CDNB-GSH conjugation, absorbance at […] nm; assay type: biochemical; details: 1 mM GSH, 100 mM phosphate buffer, CDNB 0.05-1.6 mM
T6 construct: recombinant, pET-30a(+), E. coli BL21(DE3), Ni-NTA purified, about 25 kDa expected
T6 sequence (X5CJR9 1-232): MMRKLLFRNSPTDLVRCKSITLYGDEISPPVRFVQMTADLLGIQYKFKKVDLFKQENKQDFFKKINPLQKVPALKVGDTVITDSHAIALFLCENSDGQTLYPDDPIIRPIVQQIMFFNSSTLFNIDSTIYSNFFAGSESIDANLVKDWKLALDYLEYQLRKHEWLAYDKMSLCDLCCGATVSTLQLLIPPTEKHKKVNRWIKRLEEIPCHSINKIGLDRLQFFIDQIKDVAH

GSTd2 [4] = biological target: T7, GSTd2 (Plutella xylostella, UniProt X5CJR6); assay: CDNB-GSH conjugation, absorbance at […] nm; assay type: biochemical; details: 1 mM GSH, 100 mM phosphate buffer, CDNB 0.05-1.6 mM
T7 construct: recombinant, pET-30a(+), E. coli BL21(DE3), Ni-NTA purified, about 25 kDa expected
T7 sequence (X5CJR6 1-247): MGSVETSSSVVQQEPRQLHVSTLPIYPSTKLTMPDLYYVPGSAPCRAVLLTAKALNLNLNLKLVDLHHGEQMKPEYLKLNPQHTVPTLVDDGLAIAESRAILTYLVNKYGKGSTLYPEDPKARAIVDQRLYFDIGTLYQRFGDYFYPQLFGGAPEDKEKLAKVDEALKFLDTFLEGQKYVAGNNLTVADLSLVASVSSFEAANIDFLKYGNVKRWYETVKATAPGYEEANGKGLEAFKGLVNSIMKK

GSTd4 = biological target: T8, GSTd4 (Plutella xylostella, UniProt X5CCB0); assay: CDNB-GSH conjugation, absorbance at […] nm; assay type: biochemical; details: 1 mM GSH, 100 mM phosphate buffer, CDNB 0.05-1.6 mM
T8 construct: recombinant, pET-30a(+), E. coli BL21(DE3), Ni-NTA purified, about 25 kDa expected
T8 sequence (X5CCB0 1-219): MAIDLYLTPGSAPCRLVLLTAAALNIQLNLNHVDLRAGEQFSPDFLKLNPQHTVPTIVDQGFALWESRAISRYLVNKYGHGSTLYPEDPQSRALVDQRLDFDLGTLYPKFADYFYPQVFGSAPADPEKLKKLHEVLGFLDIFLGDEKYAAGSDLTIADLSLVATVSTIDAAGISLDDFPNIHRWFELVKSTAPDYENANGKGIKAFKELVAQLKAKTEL

GSTe4 = biological target: T9, GSTe4 (Plutella xylostella, UniProt X5D048); assay: CDNB-GSH conjugation, absorbance at […] nm; assay type: biochemical; details: 1 mM GSH, 100 mM phosphate buffer, CDNB 0.05-1.6 mM
T9 construct: recombinant, pET-30a(+), E. coli BL21(DE3), Ni-NTA purified, about 25 kDa expected
T9 sequence (X5D048 1-220): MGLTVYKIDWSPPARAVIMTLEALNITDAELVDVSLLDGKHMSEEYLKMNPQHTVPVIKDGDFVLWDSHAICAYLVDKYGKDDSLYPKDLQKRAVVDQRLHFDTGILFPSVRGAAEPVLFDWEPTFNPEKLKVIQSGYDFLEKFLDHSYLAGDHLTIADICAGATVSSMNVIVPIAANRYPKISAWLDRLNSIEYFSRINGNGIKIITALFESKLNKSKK

GSTd1 [5] = biological target: T1, GSTd1; assay: inhibition of CDNB-GSH conjugation, absorbance at […] nm; assay type: biochemical; details: CDNB and GSH substrates, PBS, 10 min preincubation at 25 °C; competitive (authors' inference)
GSTd2 [6] = biological target: T7, GSTd2; assay: as above; assay type: biochemical; details: CDNB and GSH substrates, PBS, 10 min preincubation at 25 °C; competitive (authors' inference)
GSTs1 [7] = biological target: T3, GSTs1; assay: as above; assay type: biochemical; details: CDNB and GSH substrates, PBS, 10 min preincubation at 25 °C; competitive (authors' inference)
GSTs2 [8] = biological target: T2, GSTs2; assay: as above; assay type: biochemical; details: CDNB and GSH substrates, PBS, 10 min preincubation at 25 °C; competitive (authors' inference)

T2 sequence (Q6F436 1-204): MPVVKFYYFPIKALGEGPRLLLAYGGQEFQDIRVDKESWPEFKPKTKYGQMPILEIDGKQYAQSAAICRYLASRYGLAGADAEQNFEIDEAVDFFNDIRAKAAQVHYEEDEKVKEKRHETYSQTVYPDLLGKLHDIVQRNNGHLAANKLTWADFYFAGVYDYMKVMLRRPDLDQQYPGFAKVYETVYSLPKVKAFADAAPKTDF

`O=[N+]([O-])c1ccc(Cl)c([N+](=O)[O-])c1` [1-chloro-2,4-dinitrobenzene] was tested, and the Km (GSTd1 [1]) was 691 µM, the Km (GSTs2 [2]) was 469 µM and the Km (GSTs1 [3]) was 684 µM. For the same molecule, the Km (GSTd5) was 546 µM, the Km (GSTd3) was 1.01 mM and the Km (GSTe5) was 705 µM. The Km (GSTd2 [4]) was 682 µM, the Km (GSTd4) was 1.12 mM and the Km (GSTe4) was 413 µM.
`CC12C(=O)OC(=O)C1C1CCC2O1` [(S)-(−)-palasonin] was tested, and the “relative activity at 1 mM” value (GSTd1 [5]) was 0.35 fraction of control, the “relative activity at 1 mM” value (GSTd2 [6]) was 0.55 fraction of control and the “relative activity at 1 mM” value (GSTs1 [7]) was 0.26 fraction of control. For the same molecule, the “relative activity at 1 mM” value (GSTs2 [8]) was 0.51 fraction of control.
